Test results from patent publication US10993947B2, “Treatment of skin lesions” (PIQUR THERAPEUTICS AG, priority 2016, dated 2021).
Read-outs that look alike come from different tables or passages of the source.

How the values were obtained:
[1] = biological target: T1, N-terminally GST-tagged mTOR (Homo sapiens, UniProt P42345); experiment: In vitro mTOR binding assay (LanthaScreen TR-FRET)
T1 construct: truncated version: amino acids 1360-2549; purchased Life Technologies PR8683B

[2] = tested on: pS6 S235/S236 in A2058 cells; experiment: In-cell Western blot, pS6 S235/S236; assay type: cell-based; conditions: Homo sapiens, 1 hour treatment
[3] = tested on: pPKB S473 in A2058 cells; experiment: In-cell Western blot, pPKB S473; assay type: cell-based; conditions: Homo sapiens, 1 hour treatment
[4] = LanthaScreen kinase binding, Tracer 314, read-out: mTOR IC50 (binding)

T1 sequence (P42345 1360-2549): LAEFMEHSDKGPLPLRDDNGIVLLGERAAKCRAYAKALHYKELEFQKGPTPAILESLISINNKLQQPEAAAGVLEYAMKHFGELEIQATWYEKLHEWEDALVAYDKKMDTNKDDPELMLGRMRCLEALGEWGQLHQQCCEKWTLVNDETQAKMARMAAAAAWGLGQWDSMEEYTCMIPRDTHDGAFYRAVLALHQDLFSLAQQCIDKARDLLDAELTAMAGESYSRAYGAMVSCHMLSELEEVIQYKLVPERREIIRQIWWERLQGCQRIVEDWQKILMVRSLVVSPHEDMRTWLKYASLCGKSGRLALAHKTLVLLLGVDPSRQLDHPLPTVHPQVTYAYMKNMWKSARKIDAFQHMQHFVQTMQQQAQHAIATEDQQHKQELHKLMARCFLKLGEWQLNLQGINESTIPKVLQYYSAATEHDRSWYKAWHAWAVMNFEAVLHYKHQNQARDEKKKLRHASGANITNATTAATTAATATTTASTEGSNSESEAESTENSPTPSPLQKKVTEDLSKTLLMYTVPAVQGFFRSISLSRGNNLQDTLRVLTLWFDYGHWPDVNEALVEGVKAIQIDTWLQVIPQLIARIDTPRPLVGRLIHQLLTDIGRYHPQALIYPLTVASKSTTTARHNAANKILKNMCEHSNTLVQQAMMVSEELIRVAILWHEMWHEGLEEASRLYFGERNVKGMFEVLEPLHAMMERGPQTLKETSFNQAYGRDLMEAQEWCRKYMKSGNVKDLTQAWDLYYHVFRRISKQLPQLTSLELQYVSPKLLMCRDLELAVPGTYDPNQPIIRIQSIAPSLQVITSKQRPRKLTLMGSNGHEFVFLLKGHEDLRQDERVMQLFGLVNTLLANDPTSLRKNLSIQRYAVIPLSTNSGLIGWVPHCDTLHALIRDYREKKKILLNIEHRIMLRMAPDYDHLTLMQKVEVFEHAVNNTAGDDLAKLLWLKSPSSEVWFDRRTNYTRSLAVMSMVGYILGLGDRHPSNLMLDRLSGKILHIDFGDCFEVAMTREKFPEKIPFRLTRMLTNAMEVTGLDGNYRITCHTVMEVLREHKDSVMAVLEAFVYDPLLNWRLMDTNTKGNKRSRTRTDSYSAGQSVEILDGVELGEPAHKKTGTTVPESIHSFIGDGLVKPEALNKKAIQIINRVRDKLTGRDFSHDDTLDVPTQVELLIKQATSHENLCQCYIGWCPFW

| IC50 ([2]; A2058, 1 h) [nM] | IC50 ([3]; A2058, 1 h) [nM] | Compound | further results |
| --- | --- | --- | --- |
|  |  | Nc1ncc(-c2nc(N3CCOCC3)nc(N3CCOCC3)n2)c(C(F)F)n1 [Compound 2] | IC50 [1, 4]: 59 nM |
|  |  | C[C@H]1COCCN1c1nc(-c2cnc(N)nc2C(F)F)nc(N2CCOC[C@@H]2C)n1 [Compound 7] | IC50 [1, 4]: 71 nM |
|  |  | C[C@H]1COCCN1c1nc(-c2cnc(N)cc2C(F)(F)F)nc(N2CCOCC2)n1 [Compound 8 *, 5-[4-[(3S)-3-methylmorpholin-4-yl]-6-morpholino-1,3,5-triazin-2-yl]-4-(trifluoromethyl)pyridin-2-amine] | IC50 [2]: 90 nM; IC50 [3]: 196 nM |
|  |  | C[C@H]1COCCN1c1nc(-c2cnc(N)cc2C(F)F)nc(N2CCOCC2)n1 [Compound 8, (S)-4-(difluoromethyl)-5-(4-(3-methylmorpholino)-6-morpholino-1,3,5-triazin-2-yl)pyridin-2-amine] | IC50 [1, 4]: 10 nM; IC50 [2]: 68 nM; IC50 [3]: 74 nM |
|  |  | C[C@H]1COCCN1c1nc(-c2cnc(N)nc2C(F)F)nc(N2CCOCC2)n1 [Compound 9] | IC50 [1, 4]: 24 nM; IC50 [2]: 72 nM; IC50 [3]: 35 nM |
| 883 | 350 | C[C@H]1COCCN1c1nc(-c2cnc(N)cc2C(F)F)nc(N2CCNCC2)n1 [Compound 14, (S)-4-(difluoromethyl)-5-(4-(3-methylmorpholino)-6-(piperazin-1-yl)-1,3,5-triazin-2-yl)pyridin-2-amine] |  |
| 286 | 49 | C[C@H]1COCCN1c1nc(-c2cnc(N)nc2C(F)F)nc(N2CCNCC2)n1 [Compound 15, (S)-4-(difluoromethyl)-5-(4-(3-methylmorpholino)-6-(piperazin-1-yl)-1,3,5-triazin-2-yl)pyrimidin-2-amine] |  |
|  |  | Nc1ncc(-c2cc(N3CCOCC3)nc(N3CCOCC3)n2)c(C(F)F)n1 [Compound 17, 4′-(difluoromethyl)-2,6-dimorpholino-[4,5′-bipyrimidin]-2′-amine] | IC50 [1, 4]: 155 nM; IC50 [2]: 149 nM |
|  |  | Nc1ncc(-c2nc(N3CCOCC3)cc(N3CCOCC3)n2)c(C(F)F)n1 [Compound 19, 4′-(difluoromethyl)-4,6-dimorpholino-[2,5′-bipyrimidin]-2′-amine] | IC50 [1, 4]: 158 nM |
|  |  | C[C@H]1COCCN1c1cc(-c2cnc(N)nc2C(F)F)nc(N2CCOCC2)n1 [Compound 28, (S)-4′-(difluoromethyl)-6-(3-methylmorpholino)-2-morpholino-[4,5′-bipyrimidin]-2′-amine] | IC50 [1, 4]: 23 nM |
|  |  | Nc1cc(C(F)F)c(-c2nc(N3C4COCC3COC4)nc(N3C4COCC3COC4)n2)cn1 [Compound 37, 5-[4,6-bis(3,7-dioxa-9-azabicyclo[3.3.1]nonan-9-yl)-1,3,5-triazin-2-yl]-4-(difluoromethyl)pyridin-2-amine] | IC50 [1]: 49 nM |
| 332 | 1050 | C[C@@H]1COCCN1c1nc(-c2cnc(N)cc2C(F)F)nc(N2C[C@H]3C[C@@H]2CO3)n1 [Compound 52, 4-(difluoromethyl)-5-[4-[(3R)-3-methylmorpholin-4-yl]-6-[(1R,4R)-2-oxa-5-azabicyclo[2.2.1]heptan-5-yl]-1,3,5-triazin-2-yl]pyridin-2-amine] |  |
| 612 | 1320 | C[C@@H]1COCCN1c1nc(-c2cnc(N)cc2C(F)F)nc(N2C[C@@H]3C[C@H]2CO3)n1 [Compound 53, 4-(difluoromethyl)-5-[4-[(3R)-3-methylmorpholin-4-yl]-6-[(1S,4S)-2-oxa-5-azabicyclo[2.2.1]heptan-5-yl]-1,3,5-triazin-2-yl]pyridin-2-amine] |  |
| 209 | 354 | CC[C@@H]1COCCN1c1nc(-c2cnc(N)cc2C(F)F)nc(N2CCOC[C@H]2CC)n1 [Compound 54, 5-[4,6-bis[(3R)-3-ethylmorpholin-4-yl]-1,3,5-triazin-2-yl]-4-(difluoromethyl)pyridin-2-amine] |  |
| 526 | 942 | Nc1cc(C(F)F)c(-c2nc(N3CCOCC34CCC4)nc(N3CCOCC34CCC4)n2)cn1 [Compound 55, 5-[4,6-bis(8-oxa-5-azaspiro[3.5]nonan-5-yl)-1,3,5-triazin-2-yl]-4-(difluoromethyl)pyridin-2-amine] |  |
| > 10000 | > 10000 | CC(C)[C@@H]1COCCN1c1nc(-c2cnc(N)cc2C(F)F)nc(N2CCOC[C@H]2C(C)C)n1 [Compound 56, 5-[4,6-bis[(3R)-3-isopropylmorpholin-4-yl]-1,3,5-triazin-2-yl]-4-(difluoromethyl)pyridin-2-amine] |  |
| 395 | 787 | COC[C@@H]1COCCN1c1nc(-c2cnc(N)cc2C(F)F)nc(N2CCOCC2(C)C)n1 [Compound 67, 4-(difluoromethyl)-5-[4-(3,3-dimethylmorpholin-4-yl)-6-[(3R)-3-(methoxymethyl)morpholin-4-yl]-1,3,5-triazin-2-yl]pyridin-2-amine] |  |
| 415 | 682 | CC1(C)COCCN1c1nc(-c2cnc(N)cc2C(F)F)nc(N2CCOC[C@H]2CO)n1 [Compound 68, [(3R)-4-[4-[6-amino-4-(difluoromethyl)-3-pyridyl]-6-(3,3-dimethylmorpholin-4-yl)-1,3,5-triazin-2-yl]morpholin-3-yl]methanol] |  |
| 906 | 914 | CC1(C)COCCN1c1nc(-c2cnc(N)cc2C(F)F)nc(N2CCN(C3CC3)CC2)n1 [Compound 70, 5-[4-(4-cyclopropylpiperazin-1-yl)-6-(3,3-dimethylmorpholin-4-yl)-1,3,5-triazin-2-yl]-4-(difluoromethyl)pyridin-2-amine] |  |
| 3140 | 2340 | COCCN1CCN(c2nc(-c3cnc(N)cc3C(F)F)nc(N3CCOCC3(C)C)n2)CC1 [Compound 71, 4-(difluoromethyl)-5-[4-(3,3-dimethylmorpholin-4-yl)-6-[4-(2-methoxyethyl)piperazin-1-yl]-1,3,5-triazin-2-yl]pyridin-2-amine] |  |
|  | 476 | C[C@@H]1COCCN1c1nc(-c2cnc(N)cc2C(F)F)nc(N2CCOC[C@H]2CO)n1 [Compound 77, [(3R)-4-[4-[6-amino-4-(difluoromethyl)-3-pyridyl]-6-[(3R)-3-methylmorpholin-4-yl]-1,3,5-triazin-2-yl]morpholin-3-yl]methanol] |  |
| 241 | 249 | CC[C@H]1COCCN1c1nc(-c2cnc(N)cc2C(F)F)nc(N2CCOC[C@H]2C)n1 [Compound 85, 4-(difluoromethyl)-5-[4-[(3S)-3-ethylmorpholin-4-yl]-6-[(3R)-3-methylmorpholin-4-yl]-1,3,5-triazin-2-yl]pyridin-2-amine] |  |
| 236 | 231 | CC[C@@H]1COCCN1c1nc(-c2cnc(N)cc2C(F)F)nc(N2CCOC[C@H]2C)n1 [Compound 86, 4-(difluoromethyl)-5-[4-[(3R)-3-ethylmorpholin-4-yl]-6-[(3R)-3-methylmorpholin-4-yl]-1,3,5-triazin-2-yl]pyridin-2-amine] |  |
| 277 | 263 | Nc1cc(C(F)(F)F)c(-c2cc(N3CCOCC3)nc(N3CCOCC3)n2)cn1 [reference compound] |  |

| Compound | IC50 ([2]; A2058, 1 h) [nM] | IC50 ([3]; A2058, 1 h) [nM] | further results |
| --- | --- | --- | --- |
| Nc1cc(C(F)F)c(-c2nc(N3CCOCC3)nc(N3C4CCC3COC4)n2)cn1 [Compound 4, 5-(4-(3-oxa-8-azabicyclo[3.2.1]octan-8-yl)-6-morpholino-1,3,5-triazin-2-yl)-4-(difluoromethyl)pyridin-2-amine] | 135 | 178 |  |
| Nc1ncc(-c2nc(N3CCOCC3)nc(N3C4CCC3COC4)n2)c(C(F)F)n1 [Compound 5, 5-(4-(3-oxa-8-azabicyclo[3.2.1]octan-8-yl)-6-morpholino-1,3,5-triazin-2-yl)-4-(difluoromethyl)pyrimidin-2-amine] | 135 | 85 |  |
| C[C@H]1COCCN1c1nc(-c2cnc(N)cc2C(F)F)nc(N2C3CCC2COC3)n1 [Compound 10, 5-(4-(3-oxa-8-azabicyclo[3.2.1]octan-8-yl)-6-((S)-3-methylmorpholino)-1,3,5-triazin-2-yl)-4-(difluoromethyl)pyridin-2-amine] | 93 | 138 |  |
| C[C@H]1COCCN1c1nc(-c2cnc(N)nc2C(F)F)nc(N2C3CCC2COC3)n1 [Compound 11, 5-(4-(3-oxa-8-azabicyclo[3.2.1]octan-8-yl)-6-((S)-3-methylmorpholino)-1,3,5-triazin-2-yl)-4-(difluoromethyl)pyrimidin-2-amine] | 96 | 61 |  |
| Nc1cc(C(F)F)c(-c2nc(N3C4CCC3COC4)nc(N3C4COCC3COC4)n2)cn1 [Compound 38, 4-(difluoromethyl)-5-[4-(3,7-dioxa-9-azabicyclo[3.3.1]nonan-9-yl)-6-(3-oxa-8-azabicyclo[3.2.1]octan-8-yl)-1,3,5-triazin-2-yl]pyridin-2-amine] | 79 | 219 |  |
| C[C@@H]1COCCN1c1nc(-c2cnc(N)cc2C(F)F)nc(N2C3COCC2C3)n1 [Compound 50, 4-(difluoromethyl)-5-[4-[(3R)-3-methylmorpholin-4-yl]-6-(3-oxa-6-azabicyclo[3.1.1]heptan-6-yl)-1,3,5-triazin-2-yl]pyridin-2-amine] | 407 | 1560 |  |
| C[C@@H]1COCCN1c1nc(-c2cnc(N)cc2C(F)F)nc(N2CC3CC(C2)O3)n1 [Compound 51, 4-(difluoromethyl)-5-[4-[(3R)-3-methylmorpholin-4-yl]-6-(6-oxa-3-azabicyclo[3.1.1]heptan-3-yl)-1,3,5-triazin-2-yl]pyridin-2-amine] | 352 | 875 |  |
| Nc1cc(C(F)F)c(-c2nc(N3CCOCC3)nc(N3C4CCCC3COC4)n2)cn1 [Compound 80, 4-(difluoromethyl)-5-[4-morpholino-6-(3-oxa-9-azabicyclo[3.3.1]nonan-9-yl)-1,3,5-triazin-2-yl]pyridin-2-amine] | 117 | 94 |  |
| Nc1cc(C(F)F)c(-c2nc(N3CCOCC3)nc(N3C4COCC3COC4)n2)cn1 [Compound 84, 4-(difluoromethyl)-5-[4-(3,7-dioxa-9-azabicyclo[3.3.1]nonan-9-yl)-6-morpholino-1,3,5-triazin-2-yl]pyridin-2-amine] | 146 | 116 |  |
